{"source": "patent US9801374B2", "about": "“Active compound combinations comprising carboxamide derivatives” (BAYER CROPSCIENCE AG, priority 2012, dated 2017)", "key": {"[1]": {"system": "Blumeria graminis f.sp. hordei", "test": "Blumeria test (barley) / preventive", "type": "in vivo, Blumeria graminis f.sp. hordei on barley", "conditions": "evaluated 7 days after inoculation", "protocol": "(§1) • Solvent: 49 parts by weight of N,N-dimethylacetamide • Emulsifier: 1 part by weight of alkylaryl polyglycol ether\n(§2) To produce a suitable preparation of active compound, 1 part by weight of active compound or active compound combination is mixed with the stated amounts of solvent and emulsifier, and the concentrate is diluted with water to the desired concentration.\n(§3) To test for preventive activity, young plants are sprayed with the preparation of active compound or active compound combination at the stated rate of application.\nAfter the spray coating has been dried, the plants are dusted with spores of Blumeria graminis f.sp. hordei.\nThe plants are placed in the greenhouse at a temperature of approximately 18° C. and a relative atmospheric humidity of approximately 80% to promote the development of mildew pustules.\nThe test is evaluated 7 days after the inoculation. 0% means an efficacy which corresponds to that of the untreated control, while an efficacy of 100% means that no disease is observed."}, "Leptosphaeria nodorum": {"system": "Leptosphaeria nodorum", "test": "Leptosphaeria nodorum test (wheat) / preventive", "type": "in vivo, Leptosphaeria nodorum on wheat", "conditions": "evaluated 8 days after inoculation", "protocol": "as §1, §2, §3\nAfter the spray coating has been dried, the plants are sprayed with a spore suspension of Leptosphaeria nodorum. The plants remain for 48 hours in an incubation cabinet at approximately 20° C. and a relative atmospheric humidity of approximately 100%.\nThe plants are placed in the greenhouse at a temperature of approximately 22° C. and a relative atmospheric humidity of approximately 80%.\nThe test is evaluated 8 days after the inoculation. 0% means an efficacy which corresponds to that of the untreated control, while an efficacy of 100% means that no disease is observed."}}}
{"smiles": "CP(=O)(O)CCC(N)C(=O)O", "note": "(stereo not shown) [(B-13.3), glufosinate-ammonium]", "values": [{"measurement": "Efficacy in % found", "setting": "[1]; 5 ppm a.i.", "result": 0, "unit": "%"}]}
{"smiles": "CC(C)c1ccc(Cl)cc1CN(C(=O)c1c(C(F)F)nn(C)c1F)C1CC1", "note": "[compound A5, N-(5-chloro-2-isopropylbenzyl)-N-cyclopropyl-3-(difluoromethyl)-5-fluoro-1-methyl-1H-pyrazole-4-carboxamide]", "values": [{"measurement": "Efficacy in % found", "setting": "Leptosphaeria nodorum; 31 ppm a.i.", "result": 50, "unit": "%"}, {"measurement": "Efficacy in % found", "setting": "[1]; 62.5 ppm a.i.", "result": 56, "unit": "%"}]}
{"smiles": "COc1ccccc1C(=O)NS(=O)(=O)c1ccc(C(=O)NC2CC2)cc1", "note": "[(D-62), N-{[4-(cyclopropylcarbamoyl)phenyl]-sulfonyl}-2-methoxybenzamide]", "values": [{"measurement": "Efficacy in % found", "setting": "Leptosphaeria nodorum; 25 ppm a.i.", "result": 0, "unit": "%"}]}
{"smiles": "O=C(O)CNCP(=O)(O)O", "note": "[(B-14.1), glyphosate]", "values": [{"measurement": "Efficacy in % found", "setting": "[1]; 5 ppm a.i.", "result": 11, "unit": "%"}]}
{"smiles": "CCOC(=O)C1=NOC(c2ccccc2)(c2ccccc2)C1", "note": "[(D-19), isoxadifen-ethylen]", "values": [{"measurement": "Efficacy in % found", "setting": "Leptosphaeria nodorum; 25 ppm a.i.", "result": 17, "unit": "%"}]}
{"smiles": "CCOC(=O)C1=NN(c2ccc(Cl)cc2Cl)C(C)(C(=O)OCC)C1", "note": "[(D-23), mefenpyr-diethyl]", "values": [{"measurement": "Efficacy in % found", "setting": "Leptosphaeria nodorum; 25 ppm a.i.", "result": 17, "unit": "%"}]}
